Entries after “also recorded” stand apart in the source; their conditions may differ. Bridge positions count the residues as written; N and C are the ends. Square brackets hold non-standard residues; d marks the D form. Ends that are not written are not given here. * marks the point of attachment. Biotin = O=C1N[C@H]2[C@H](CS[C@H]2CCCCC(=O)*)N1; R8 = C=CCCCCCC[C@@](C)(N)C(=O)O; S5 = C=CCCC[C@](C)(N)C(=O)O; Nle = CCCC[C@H](N)C(=O)O; Dab = NCC[C@H](N)C(=O)O; Acryloyl = C=CC(=O)*
What was measured:
[1] = Circular dichroism, α-helicity; type: physicochemical; conditions: in solution
Experimental: Assays to Determine α-Helicity: Compounds are dissolved in an aqueous solution (e.g., 5 mM potassium phosphate solution at pH 7, or distilled H2O, to concentrations of 25-50 μM). Circular dichroism (CD) spectra are obtained on a spectropolarimeter (e.g., Jasco J-710, Aviv) using standard measurement parameters (e.g., temperature, 20° C.; wavelength, 190-260 nm; step resolution, 0.5 nm; speed, 20 nm/sec; accumulations, 10; response, 1 sec; bandwidth, 1 nm; path length, 0.1 cm). The α-helical content of each peptide is calculated by dividing the mean residue ellipticity by the reported value for a model helical decapeptide (Yang et al., Methods Enzymol. 130:208 (1986)).
Circular Dichroism: Acetylated peptides were dissolved in 10% (vol/vol) acetonitrile in water for circular dichroism analyses, performed on an Aviv Biomedical spectrophotometer, as reported (see Bird et. al., Methods in Enzymol., 446:369-386 (2008)).

[2] = target: T1, Human E1 activating enzyme UBA1 (Homo sapiens, UniProt P22314); experiment: In vitro enzyme inhibition assay: E1-mediated ubiquitin thioester transfer to E2 (band shift, silver stain); type: biochemical; conditions: for inhibition of E1-mediated thioester transfer to E2 by mutant / additional stapled peptides: SAH-UBE2A-11 variants and controls, Examples 4, 7, 13; for inhibition of E1-mediated ubiquitin transfer to E2 (conversion of E2 to E2~ubiquitin): 100 μM peptide, staple scan; for inhibition of E1-mediated ubiquitin transfer to E2 (conversion of E2 to E2~ubiquitin) / inhibition of E1-mediated thioester transfer to E2, dose response: UbcH5b E2 enzyme, 45 minutes; for inhibition of E1-mediated thioester transfer to E2, dose response: range of peptide concentrations
T1 sequence (P22314 1-1058): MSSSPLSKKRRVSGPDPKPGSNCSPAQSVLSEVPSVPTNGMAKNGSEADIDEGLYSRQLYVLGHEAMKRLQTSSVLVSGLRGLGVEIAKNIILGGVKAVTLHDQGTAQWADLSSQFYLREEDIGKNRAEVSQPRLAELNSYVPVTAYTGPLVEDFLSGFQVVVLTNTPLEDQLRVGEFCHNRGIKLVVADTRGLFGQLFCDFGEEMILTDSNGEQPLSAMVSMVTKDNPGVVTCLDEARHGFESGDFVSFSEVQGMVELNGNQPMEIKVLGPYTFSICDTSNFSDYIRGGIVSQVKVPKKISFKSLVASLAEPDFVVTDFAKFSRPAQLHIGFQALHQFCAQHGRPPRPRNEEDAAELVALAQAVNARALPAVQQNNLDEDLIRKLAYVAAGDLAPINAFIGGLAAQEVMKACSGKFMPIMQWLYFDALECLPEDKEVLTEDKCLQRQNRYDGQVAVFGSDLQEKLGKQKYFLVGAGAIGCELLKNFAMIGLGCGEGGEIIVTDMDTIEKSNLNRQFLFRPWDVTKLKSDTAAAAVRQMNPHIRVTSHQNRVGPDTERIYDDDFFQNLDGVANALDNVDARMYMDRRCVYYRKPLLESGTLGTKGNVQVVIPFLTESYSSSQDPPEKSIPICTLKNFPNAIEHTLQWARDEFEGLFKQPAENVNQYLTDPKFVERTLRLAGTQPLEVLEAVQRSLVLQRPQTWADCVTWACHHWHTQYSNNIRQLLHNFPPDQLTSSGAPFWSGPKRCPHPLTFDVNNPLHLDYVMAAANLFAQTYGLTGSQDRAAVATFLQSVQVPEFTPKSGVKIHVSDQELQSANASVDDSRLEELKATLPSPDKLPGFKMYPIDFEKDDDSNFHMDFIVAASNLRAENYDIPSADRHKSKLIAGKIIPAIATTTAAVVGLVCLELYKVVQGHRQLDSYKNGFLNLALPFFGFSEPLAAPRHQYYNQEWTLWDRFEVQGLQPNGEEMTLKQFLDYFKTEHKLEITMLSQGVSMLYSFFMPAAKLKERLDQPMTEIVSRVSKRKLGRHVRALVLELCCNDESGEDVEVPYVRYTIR
Experimental: In vitro Enzyme Inhibition Assays: To assess an E2 hA peptide's inhibition of an E1 enzyme, an in vitro enzyme inhibition assay can be used, for example. The in vitro enzyme inhibition assay measures an E2 hA peptide's ability to inhibit conjugation of ubiquitin to E2 by E1. Briefly, recombinant E1 (e.g., UBA1), recombinant E2 (e.g., UBE2A), ubiquitin, and Mg-ATP are combined in the presence of an E2 hA peptide or vehicle control (e.g., 1% DMSO) for a period of time (e.g., 30 minutes) at room temperature in a buffer containing, e.g., 50 mM NaCl, 50 mM HEPES pH 7.5. Control reaction includes no E1. Reactions are quenched by addition of SDS-containing loading dye and samples are resolved on a gel (e.g., a 4-12% Bis-Tris protein gel) under nonreducing conditions. Proteins on the gel are visualized via, e.g., silver stain. Conjugation of ubiquitin to E2 by E1 is monitored by conversion of free E2 (˜17 kDa) to E2˜ubiquitin conjugate (˜26 kDa).
Control reaction included no E1 enzyme. Reactions were quenched by addition of SDS-containing loading dye and samples were resolved on a 4-12% Bis-Tris protein gel under nonreducing conditions. Proteins were visualized via silver stain. Conjugation of ubiquitin to E2 by E1 was monitored by conversion of free E2 (17 kDa) to E2˜ubiquitin conjugate (26 kDa).
The ability of the peptides to inhibit E1-mediated thioester transfer to E2 was evaluated. Human E1 activating enzyme UBA1 (10 nM), UbcH5b E2 enzyme (150 nM), ubiquitin (1 μM), and Mg-ATP (20 μM) were combined in the presence of stapled peptide at a range of concentrations or vehicle control (1% DMSO) for 45 minutes at room temperature in buffer containing 50 mM NaCl, 50 mM HEPES, 1 mM TCEP pH 7.5. Reactions were quenched by addition of SDS-containing loading dye and samples were resolved on a 4-12% Bis-Tris protein gel under nonreducing conditions. Proteins were visualized via silver stain. Conjugation of ubiquitin to E2 by E1 was monitored by conversion of free E2 (17 kDa) to E2˜ubiquitin conjugate (26 kDa). Inhibition percentage was calculated from densitometry of silver stain images.
Streptavidin-biotin pull-down assays: For recombinant protein pull-downs, 10 pmol recombinant human UBA1 was incubated with 5 nmol C-terminally biotinylated SAH-UBE2A or DMSO vehicle control in a total volume of 1 mL binding buffer (50 mM NaCl, 20 mM HEPES, pH 7.4, 5 mM DTT) for 1.5 hours at 4° C. 30 μL of pre-equilibrated streptavidin agarose beads were then added and incubated for an additional 1.5 hours at 4° C. The beads were pelleted by centrifugation and washed three times with NP-40 buffer (20 mM HEPES, pH 7.4, 50 mM NaCl, 5 mM DTT, 0.5% [v/v] NP-40) before eluting the protein sample from the beads by heating at 70° C. for 10 min in 3×SDS loading buffer. Samples were subjected to electrophoresis and silver staining (Pierce 24612). For pull-down from cellular lysates, 0.75 mg HeLa cell lysate was incubated with 5 nmol C-terminally biotinylated SAH-UBE2A or DMSO vehicle control in a total volume of 1 mL binding buffer (50 mM NaCl, 20 mM HEPES, pH 7.4, 5 mM DTT) containing protease-phosphatase inhibitor cocktail for 2 hours at 4° C. 30 μL of pre-equilibrated streptavidin agarose beads (ThermoFisher 20357) were then added and incubated for an additional 1.5 hours at 4° C. The beads were pelleted by centrifugation and washed three times with NP-40 buffer (20 mM HEPES, pH 7.4, 50 mM NaCl, 5 mM DTT, 0.5% [v/v] NP-40) before eluting the protein sample from the beads by heating at 70° C. for 10 min in 3×SDS loading buffer. Proteins were separated by SDS-PAGE gel electrophoresis and detected by western blot against UBE1 (Abcam ab34711). In vitro Enzyme Inhibition Assays: Recombinant human E1 activating enzyme UBA1 (10 nM), E2 enzyme (150 nM), ubiquitin (1 μM), and Mg-ATP (20 μM) are combined in the presence of peptide or vehicle control (1% DMSO) for 45 minutes at room temperature in buffer containing 50 mM NaCl, 50 mM HEPES pH 7.5. Control reaction includes no E1 enzyme. […]

BPSSASRQLLRKQLKEIQZ ([Nle]PSSASRQLLRKQLKEIQK(Biotin)) [Ubc15-1, unmodified Ubc15 peptide, Z is biotinylated lysine]
helicity / helical content [1]: 19%

BSTPX1RRRLARX2FKRLQ (Ac-[Nle]STP[R8]RRRLAR[S5]FKRLQ-NH2; staple 5-12) [SEQ ID NO:820]
inhibition of E1-mediated thioester transfer to E2 by mutant / additional stapled peptides [2]: impair the inhibitory activity of SAH-UBE2A-11

BSTPX1RARAARX2FKRLQ (Ac-[Nle]STP[R8]RARAAR[S5]FKRLQ-NH2; staple 5-12) [SAH-UBE2A-AAA]
inhibition of E1-mediated thioester transfer to E2 by mutant / additional stapled peptides [2]: no inhibitory activity; also recorded: progressively impaired inhibitory activity as compared to the single point mutation peptide SAH-UBE2A-R7E; also recorded: negligible inhibitory activity

BSTPARRRLBRDFKRLQ ([Nle]STPARRRL[Nle]RDFKRLQ-NH2; not fully specified (N-terminus)) [UBE2A, unmodified (unstapled) UBE2A peptide, B is norleucine]
helicity / helical content [1]: 21% | inhibition of E1-mediated thioester transfer to E2 by mutant / additional stapled peptides [2]: no inhibitory activity; also recorded: negligible inhibitory activity

BPSSASRQLLRKX2LKEX2Q [SEQ ID NO:47]
inhibition of E1-mediated ubiquitin transfer to E2 (conversion of E2 to E2~ubiquitin) [2]: inhibited conversion of E2 to E2˜ubiquitin by E1

BPSSAX1RQLLRKX2LKEIQ [SEQ ID NO:50]
helicity / helical content [1]: 51% | inhibition of E1-mediated ubiquitin transfer to E2 (conversion of E2 to E2~ubiquitin) [2]: best in this panel at inhibiting E1-mediated ubiquitin transfer to E2 | inhibition of E1-mediated thioester transfer to E2, dose response ([2]; listed as SAH-Ubc15-11): inhibited E1-mediated thioester transfer to E2 in a dose-dependent manner; also recorded: dose-dependently inhibit E1-mediated thioester transfer to E2

BPSSASRX2LLRX2QLKEIQ [SEQ ID NO:43]
inhibition of E1-mediated ubiquitin transfer to E2 (conversion of E2 to E2~ubiquitin) [2]: unable to inhibit E1-mediated ubiquitin transfer to E2

BSTPX1RRRABRX2FKRLQ ([Nle]STP[R8]RRRA[Nle]R[S5]FKRLQ-NH2; staple 5-12; not fully specified (N-terminus); printed as BSTPX1RRRABRX2FKRLQ) [SEQ ID NO:819]
inhibition of E1-mediated thioester transfer to E2 by mutant / additional stapled peptides [2]: impair the inhibitory activity of SAH-UBE2A-11

BSTPX1RRRLBRX2FJRLQ ([Nle]STP[R8]RRRL[Nle]R[S5]F[Dab](Acryloyl)RLQ; staple 5-12; not fully specified (N-terminus, C-terminus); printed as BSTPX1RRRLBRX2FJRLQ) [SEQ ID NO:752, warhead-bearing stapled peptide, J acrylamide-bearing Dab at A11, staple A2 and A9]
inhibition of E1-mediated thioester transfer to E2 by warhead-bearing stapled peptides ([2]; Example 8): inhibited E1-mediated thioester transfer to E2

BPSSX2SRQX2LRKQLKEIQ [SEQ ID NO:41]
inhibition of E1-mediated ubiquitin transfer to E2 (conversion of E2 to E2~ubiquitin) [2]: unable to inhibit E1-mediated ubiquitin transfer to E2

BPSSAX2RQLX2RKQLKEIQ [SEQ ID NO:42]
inhibition of E1-mediated ubiquitin transfer to E2 (conversion of E2 to E2~ubiquitin) [2]: unable to inhibit E1-mediated ubiquitin transfer to E2

BPSSASRQLLRX2QLKX2IQ [SEQ ID NO:46]
inhibition of E1-mediated ubiquitin transfer to E2 (conversion of E2 to E2~ubiquitin) [2]: inhibited conversion of E2 to E2˜ubiquitin by E1

BAGTX1LKRLBAX2YK [SAH-UBE2G2-11]
inhibition of E1-mediated thioester transfer to E2, dose response [2]: inhibited E1-mediated thioester transfer to E2 in a dose-dependent manner; also recorded: dose-dependently inhibit E1-mediated thioester transfer to E2

BPSSASRQX2LRKX2LKEIQ [SEQ ID NO:44]
inhibition of E1-mediated ubiquitin transfer to E2 (conversion of E2 to E2~ubiquitin) [2]: inhibited conversion of E2 to E2˜ubiquitin by E1

BPSSASRX1LLRKQLX2EIQ [SEQ ID NO:52]
inhibition of E1-mediated ubiquitin transfer to E2 (conversion of E2 to E2~ubiquitin) [2]: inhibited conversion of E2 to E2˜ubiquitin by E1
